Laboratory results as given in ChEMBL document CHEMBL5625175, “Quinazoline-based VEGFR-2 inhibitors as potential anti-angiogenic agents: A contemporary perspective of SAR and molecular docking studies” (Eur J Med Chem, 2023).
≈ marks a conversion by molar mass, not a printed value. One block for each compound: values may come before it.

Assays:
[1] = target: Epidermal growth factor receptor (Homo sapiens, UniProt P00533); test: Inhibition of EGFR (unknown origin) using TK as substrate incubated for 60 mins by HTRF method
Chain of Epidermal growth factor receptor (P00533 whole entry): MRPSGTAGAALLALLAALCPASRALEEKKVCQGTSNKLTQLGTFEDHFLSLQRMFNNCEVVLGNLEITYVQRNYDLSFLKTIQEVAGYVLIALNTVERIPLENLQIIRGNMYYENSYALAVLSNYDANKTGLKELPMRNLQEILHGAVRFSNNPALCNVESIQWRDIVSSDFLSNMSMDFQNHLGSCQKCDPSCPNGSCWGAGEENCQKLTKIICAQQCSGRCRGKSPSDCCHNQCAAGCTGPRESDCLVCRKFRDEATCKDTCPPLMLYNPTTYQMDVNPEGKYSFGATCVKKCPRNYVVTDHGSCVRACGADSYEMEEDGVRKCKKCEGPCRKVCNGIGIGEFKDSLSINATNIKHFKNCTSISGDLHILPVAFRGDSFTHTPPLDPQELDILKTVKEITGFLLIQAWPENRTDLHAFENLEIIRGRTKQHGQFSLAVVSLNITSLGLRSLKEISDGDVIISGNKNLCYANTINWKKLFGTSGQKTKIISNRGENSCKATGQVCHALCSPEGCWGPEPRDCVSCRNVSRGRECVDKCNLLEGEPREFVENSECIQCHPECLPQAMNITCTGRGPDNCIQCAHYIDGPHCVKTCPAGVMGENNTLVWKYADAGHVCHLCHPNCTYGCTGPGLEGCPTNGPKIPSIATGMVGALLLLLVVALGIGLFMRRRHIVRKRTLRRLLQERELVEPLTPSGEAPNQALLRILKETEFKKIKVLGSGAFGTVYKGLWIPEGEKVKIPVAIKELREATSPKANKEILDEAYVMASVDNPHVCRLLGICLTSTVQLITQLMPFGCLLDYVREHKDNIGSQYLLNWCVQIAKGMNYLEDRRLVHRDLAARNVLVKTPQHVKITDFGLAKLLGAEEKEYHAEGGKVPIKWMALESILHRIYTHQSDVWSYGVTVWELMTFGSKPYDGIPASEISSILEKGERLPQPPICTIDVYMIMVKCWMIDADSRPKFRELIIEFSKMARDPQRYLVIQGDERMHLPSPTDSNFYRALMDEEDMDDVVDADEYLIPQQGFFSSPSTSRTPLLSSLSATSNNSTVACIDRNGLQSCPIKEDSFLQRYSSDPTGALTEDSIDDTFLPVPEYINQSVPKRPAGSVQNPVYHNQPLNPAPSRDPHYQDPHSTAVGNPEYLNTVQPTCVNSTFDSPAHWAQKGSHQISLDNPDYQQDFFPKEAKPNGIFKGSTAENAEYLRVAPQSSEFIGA

[2] = Antiproliferative activity against human WI-38 cells assessed as reduction in cell growth measured after 24 hrs by MTT assay; type: toxicity, cell-based
HepG2 [3] = test: Cytotoxicity against human HepG2 cells assessed as cell growth inhibition; type: functional, cell-based
HCT-116 [4] = test: Cytotoxicity against human HCT-116 cells assessed as cell growth inhibition; type: functional, cell-based
WISH = test: Cytotoxicity against human WISH cells assessed as cell growth inhibition; type: functional, cell-based
MCF7 [5] = test: cells; settings: Homo sapiens, MCF7, 48 h
B16 = test: Antiproliferative activity against mouse B16 cells assessed as reduction in cell viability incubated for 48 hrs by MTT assay; type: functional, cell-based; settings: B16, 48 h
HCT-116 [6] = test: cells; settings: Homo sapiens, HCT-116, 48 h
Macrophage = test: cells; settings: Homo sapiens, 48 h
NCI-H460 = test: cells; settings: Homo sapiens, NCI-H460, 48 h
A549 = test: cells; settings: Homo sapiens, A549, 48 h
[7] = Oral bioavailability in rat at 2.5 mg/kg; type: ADME, organism-based; settings: in vivo
[8] = Half life in rat at 5 mg/kg, iv; type: ADME, organism-based; settings: in vivo
Calu-6 = test: Antitumor activity against human Calu-6 cells xenografted in athymic mouse assessed as inhibition of tumor growth at 100 mg/kg, po administered once daily for 21 days relative to control; type: functional; design: scale not given: the % may be the effect or the level left; settings: time 21 day
HUVEC [9] = test: cells; settings: Homo sapiens
HUVEC [10] = test: cells; settings: Homo sapiens; remark: listed apart in the source
in vitro = settings: human, HUVEC cells
[11] = target: Vascular endothelial growth factor receptor 3 (Homo sapiens, UniProt P35916); test: Inhibition of VEGFR-3 (unknown origin)
[12] = target: Vascular endothelial growth factor receptor 1 (Homo sapiens, UniProt P17948); test: Inhibition of VEGFR-1 (unknown origin)
Chain of Vascular endothelial growth factor receptor 1 (P17948 whole entry): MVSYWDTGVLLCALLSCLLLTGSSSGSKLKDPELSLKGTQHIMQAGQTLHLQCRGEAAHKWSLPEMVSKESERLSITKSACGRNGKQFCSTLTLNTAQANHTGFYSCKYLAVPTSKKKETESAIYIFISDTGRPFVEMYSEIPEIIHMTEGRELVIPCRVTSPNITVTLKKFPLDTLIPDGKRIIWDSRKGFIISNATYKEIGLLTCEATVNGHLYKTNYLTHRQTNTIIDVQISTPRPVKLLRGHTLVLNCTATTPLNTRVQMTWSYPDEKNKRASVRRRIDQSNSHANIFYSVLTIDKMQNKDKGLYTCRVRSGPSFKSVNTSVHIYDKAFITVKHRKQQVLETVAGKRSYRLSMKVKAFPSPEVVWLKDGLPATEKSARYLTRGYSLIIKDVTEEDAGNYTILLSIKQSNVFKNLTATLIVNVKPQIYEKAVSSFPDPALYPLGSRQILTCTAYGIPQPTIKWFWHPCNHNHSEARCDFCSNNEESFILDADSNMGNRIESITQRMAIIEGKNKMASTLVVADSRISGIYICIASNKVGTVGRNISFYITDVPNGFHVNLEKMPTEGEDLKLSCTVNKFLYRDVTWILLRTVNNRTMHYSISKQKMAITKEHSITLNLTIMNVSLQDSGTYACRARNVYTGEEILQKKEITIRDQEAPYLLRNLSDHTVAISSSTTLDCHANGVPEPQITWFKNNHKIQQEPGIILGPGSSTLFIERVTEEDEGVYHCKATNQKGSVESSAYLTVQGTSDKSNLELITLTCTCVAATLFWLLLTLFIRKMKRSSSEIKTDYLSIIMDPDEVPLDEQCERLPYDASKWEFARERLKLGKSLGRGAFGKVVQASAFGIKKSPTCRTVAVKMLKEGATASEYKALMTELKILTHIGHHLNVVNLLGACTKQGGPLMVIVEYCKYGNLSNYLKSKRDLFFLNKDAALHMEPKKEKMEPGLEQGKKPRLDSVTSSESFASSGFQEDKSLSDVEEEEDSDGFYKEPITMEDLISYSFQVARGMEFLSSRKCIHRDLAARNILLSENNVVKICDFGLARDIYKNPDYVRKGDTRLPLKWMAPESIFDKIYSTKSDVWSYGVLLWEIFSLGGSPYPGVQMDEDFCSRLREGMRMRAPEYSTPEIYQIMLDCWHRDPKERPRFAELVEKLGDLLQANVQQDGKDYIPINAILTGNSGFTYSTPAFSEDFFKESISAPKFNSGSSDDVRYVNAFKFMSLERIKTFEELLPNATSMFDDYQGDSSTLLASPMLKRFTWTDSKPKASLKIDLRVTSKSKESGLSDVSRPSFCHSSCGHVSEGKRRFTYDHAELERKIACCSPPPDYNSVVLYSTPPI

[13] = target: T1, Vascular endothelial growth factor receptor 2 (Homo sapiens, UniProt P35968)
T1 sequence (P35968 whole entry): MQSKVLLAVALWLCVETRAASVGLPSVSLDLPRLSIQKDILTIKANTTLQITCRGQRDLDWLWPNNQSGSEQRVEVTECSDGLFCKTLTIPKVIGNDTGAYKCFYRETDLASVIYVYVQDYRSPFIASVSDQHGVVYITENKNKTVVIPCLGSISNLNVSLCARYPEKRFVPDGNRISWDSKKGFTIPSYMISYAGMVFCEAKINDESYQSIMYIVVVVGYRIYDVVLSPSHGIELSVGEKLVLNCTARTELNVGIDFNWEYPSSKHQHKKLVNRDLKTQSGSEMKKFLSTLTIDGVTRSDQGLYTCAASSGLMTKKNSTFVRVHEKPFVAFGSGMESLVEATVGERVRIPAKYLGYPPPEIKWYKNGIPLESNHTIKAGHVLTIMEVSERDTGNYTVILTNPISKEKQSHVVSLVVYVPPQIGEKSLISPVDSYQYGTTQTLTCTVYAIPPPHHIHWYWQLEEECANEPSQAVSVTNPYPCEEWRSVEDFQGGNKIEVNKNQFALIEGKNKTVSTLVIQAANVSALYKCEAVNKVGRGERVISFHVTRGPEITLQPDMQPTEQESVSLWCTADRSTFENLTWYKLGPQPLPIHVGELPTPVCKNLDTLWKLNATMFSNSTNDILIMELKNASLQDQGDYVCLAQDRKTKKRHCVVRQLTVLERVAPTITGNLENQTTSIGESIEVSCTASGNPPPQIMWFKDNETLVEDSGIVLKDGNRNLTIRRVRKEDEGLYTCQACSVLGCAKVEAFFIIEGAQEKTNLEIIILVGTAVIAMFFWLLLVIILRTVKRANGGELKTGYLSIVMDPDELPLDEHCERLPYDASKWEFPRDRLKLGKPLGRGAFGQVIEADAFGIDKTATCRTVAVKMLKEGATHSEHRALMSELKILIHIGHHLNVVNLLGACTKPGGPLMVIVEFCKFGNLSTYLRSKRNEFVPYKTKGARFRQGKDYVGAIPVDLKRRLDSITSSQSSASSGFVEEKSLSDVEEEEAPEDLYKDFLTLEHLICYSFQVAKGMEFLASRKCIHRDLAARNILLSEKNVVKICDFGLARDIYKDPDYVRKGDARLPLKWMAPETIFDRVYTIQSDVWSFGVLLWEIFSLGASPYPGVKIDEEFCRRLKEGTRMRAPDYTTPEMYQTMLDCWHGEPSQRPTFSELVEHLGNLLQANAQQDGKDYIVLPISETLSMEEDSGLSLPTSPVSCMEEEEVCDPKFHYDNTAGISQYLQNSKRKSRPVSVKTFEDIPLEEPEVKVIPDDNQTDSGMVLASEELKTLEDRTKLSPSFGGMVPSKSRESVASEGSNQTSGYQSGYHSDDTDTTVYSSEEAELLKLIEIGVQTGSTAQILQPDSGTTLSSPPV

HepG2 [14] = test: Antiproliferative activity against human HepG2 cells assessed as reduction in cell growth incubated for 48 hrs by MTT based colorimetric analysis; type: functional; settings: HepG2, 48 h
HCT-116 [15] = test: Antiproliferative activity against human HCT-116 cells assessed as cell growth inhibition measured after 48 hrs by MTT assay; type: functional, cell-based; settings: HCT-116, 48 h
MCF7 [16] = test: Antiproliferative activity against human MCF7 cells assessed as cell growth inhibition measured after 48 hrs by MTT assay; type: functional, cell-based; settings: MCF7, 48 h
Angiopoietin-1 receptor = Angiopoietin-1 receptor (Homo sapiens, UniProt Q02763); test: Inhibition of TIE-2 (unknown origin)
[17] = target: Platelet-derived growth factor receptor beta (Homo sapiens, UniProt P09619); test: Inhibition of human recombinant PDGFRbeta using poly (Glu, Tyr)4:1 as substrate measured after 60 mins by ELISA
Chain of Platelet-derived growth factor receptor beta (P09619 whole entry): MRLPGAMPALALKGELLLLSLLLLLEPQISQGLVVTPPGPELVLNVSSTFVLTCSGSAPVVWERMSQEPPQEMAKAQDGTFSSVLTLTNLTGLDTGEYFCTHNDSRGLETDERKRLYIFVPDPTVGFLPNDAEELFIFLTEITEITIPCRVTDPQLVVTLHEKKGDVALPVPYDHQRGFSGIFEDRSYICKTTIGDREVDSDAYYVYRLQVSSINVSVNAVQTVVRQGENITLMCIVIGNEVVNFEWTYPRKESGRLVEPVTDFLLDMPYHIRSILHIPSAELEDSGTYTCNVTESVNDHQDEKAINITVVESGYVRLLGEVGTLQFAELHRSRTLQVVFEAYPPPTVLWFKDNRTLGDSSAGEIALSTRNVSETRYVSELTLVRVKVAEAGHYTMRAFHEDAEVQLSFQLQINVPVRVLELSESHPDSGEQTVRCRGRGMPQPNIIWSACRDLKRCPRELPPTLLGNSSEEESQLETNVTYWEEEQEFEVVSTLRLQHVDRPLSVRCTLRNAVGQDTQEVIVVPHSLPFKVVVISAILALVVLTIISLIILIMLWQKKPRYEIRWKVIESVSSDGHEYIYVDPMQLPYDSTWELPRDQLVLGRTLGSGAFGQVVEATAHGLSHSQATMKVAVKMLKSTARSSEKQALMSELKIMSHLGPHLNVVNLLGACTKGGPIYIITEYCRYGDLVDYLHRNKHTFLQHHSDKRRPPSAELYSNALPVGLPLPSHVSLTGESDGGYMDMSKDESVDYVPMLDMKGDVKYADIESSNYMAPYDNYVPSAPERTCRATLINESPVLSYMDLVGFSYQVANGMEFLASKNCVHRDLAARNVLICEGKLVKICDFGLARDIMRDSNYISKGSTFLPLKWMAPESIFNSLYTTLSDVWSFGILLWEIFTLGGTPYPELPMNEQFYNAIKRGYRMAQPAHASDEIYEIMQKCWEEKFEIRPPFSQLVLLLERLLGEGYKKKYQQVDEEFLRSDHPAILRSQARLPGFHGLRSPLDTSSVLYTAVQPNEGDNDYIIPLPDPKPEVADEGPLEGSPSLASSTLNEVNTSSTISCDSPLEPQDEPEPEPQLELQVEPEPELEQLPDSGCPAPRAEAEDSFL

Ephrin type-B receptor 4 = Ephrin type-B receptor 4 (Homo sapiens, UniProt P54760)
MCF7 [18] = test: Antiproliferative activity against human MCF7 cells assessed as reduction in cell viability measured after 72 hrs by MTT assay; type: functional, cell-based; settings: MCF7, 72 h
HepG2 [19] = test: Antiproliferative activity against human HepG2 cells assessed as reduction in cell viability measured after 72 hrs by MTT assay; type: functional, cell-based; settings: HepG2, 72 h
MCF7 [20] = test: cells; settings: Homo sapiens, MCF7, 48 h; remark: listed apart in the source
[21] = target: T1, Vascular endothelial growth factor receptor 2; test: Inhibition of N-terminal polyhistidine human recombinant KDR using poly-(Glu4-Tyr) peptide as substrate incubated for 60 mins by DELFIA/time-resolved fluorometric analysis
MCF7 [22] = test: Cytotoxicity against human MCF7 cells assessed as reduction in cell growth incubated for 24 hrs by MTT assay; type: functional, cell-based; settings: MCF7, 24 h
MCF7 [23] = test: Induction of cell cycle arrest in human MCF7 cells assessed as reduction in accumulation of cells in G2/M phase at 10 uM incubated for 24 hrs by PI staining based flow cytometry analysis relative to control; type: functional; design: scale not given: the % may be the effect or the level left

Compound: CC(C)c1ccc(Nc2ncnc3cc(NC(=O)Nc4ccccc4)ccc23)cc1
- IC50 [1]: 0.479 µM

Compound: CCn1c(SCC(=O)NNC(=O)c2ccccc2)nc2ccc([N+](=O)[O-])cc2c1=O
- IC50 at 24 h [2]: 146 µg/mL (≈ 341 µM)

Compound: Cc1ccc2nc(-c3cccnc3)nc(NNC(=S)NC3CCCCC3)c2c1
- IC50 (HepG2 [3]): 10.4 µM
- IC50 (HCT-116 [4]): 3.37 µM
- IC50 (WISH): 49.6 µM

Compound: CCNC(=S)NS(=O)(=O)c1ccc(NC(=O)CSc2nc3ccccc3c(=O)n2CC)cc1
- IC50 (HepG2 [14]): 4.33 µM

Compound: C/C(=N\NC(=O)c1ccccc1O)c1ccc(NC(=O)CSc2nc3ccccc3c(=O)n2-c2ccccc2)cc1
- IC50 (HCT-116 [15]): 5 µM
- IC50 (MCF7 [16]): 6.77 µM

Compound: O=C(Nc1ccc(-c2ccc3c(=O)[nH]cnc3c2)cc1)Nc1ccc(F)c(F)c1
- IC50 (Angiopoietin-1 receptor): 8.87 µM
- IC50 [17]: 98.5 µM
- IC50 (Ephrin type-B receptor 4): 3.21 µM

Compound: CCn1c(SCCCN2C(=O)c3ccccc3C2=O)nc2cc3ccccc3cc2c1=O
- IC50 (MCF7 [18]): 9.4 µM
- IC50 (HepG2 [19]): 26 µM

Compound: O=[N+]([O-])c1ccc(COc2ncnc3ccc([N+](=O)[O-])cc23)cc1
- IC50 [21]: 0.00471 µM

Compound: NS(=O)(=O)c1ccc(-n2c(SCC(=O)N/N=C/c3ccc(Cl)cc3Cl)nc3cc4ccccc4cc3c2=O)cc1
- IC50 (MCF7 [22]): 0.1 µM
- IC50 [13]: 0.64 µM
- Activity (MCF7 [23]): 24.17%

Continued, in another order:

- IC50 (MCF7 [5]): 17.7 µM
- IC50 (B16): 6.11 µM
- IC50 (HCT-116 [6]): 9.13 µM
Compound: COc1cc2ncnc(Oc3cccc(NC(=S)Nc4ccc(Cl)c(C(F)(F)F)c4)c3)c2cc1OC

- IC50 (MCF7 [5]): 15.7 µM
- IC50 (B16): 5.57 µM
- IC50 (HCT-116 [6]): 8.35 µM
Compound: COc1cc2ncnc(Oc3cccc(NC(=S)Nc4ccc(Br)c(C(F)(F)F)c4)c3)c2cc1OC

- IC50 (NCI-H460): 0.39 µM
- IC50 (A549): 0.62 µM
Compound: COc1cc2nccc(Oc3ccc(NC(=O)Nc4cc(C)on4)c(Cl)c3)c2cc1OC [TIVOZANIB]
- IC50 (Macrophage): 227 µM

- bioavailability [7]: > 50%
- half-life [8]: 8.3 h
- EC50 (in vitro): > 3 µM
Compound: COc1cc2/c(=N/c3ccc(Br)cc3F)nc[nH]c2cc1OCC1CCN(C)CC1 [VANDETANIB]
- Activity (Calu-6): 79%
- EC50 (HUVEC [9]): 0.06 µM
- EC50 (HUVEC [10]): 0.01 µM

- IC50 [11]: 0.125 µM
- IC50 [12]: 0.17 µM
- IC50 [13]: 0.16 µM
Compound: CCCNC(=O)Nc1ccc(Nc2ncnc3cc(OC)c(OC)cc23)cc1Cl

- IC50 (MCF7 [20]): 0.35 µM
- IC50 (NCI-H460): 0.39 µM
- IC50 (A549): 0.58 µM
Compound: COc1ccc(Cc2nnc(COc3ncnc4ccccc34)o2)cc1OC
- IC50 (Macrophage): 288 µM

- IC50 [12]: 0.11 µM
- IC50 [13]: 0.087 µM
Compound: COc1cc2ncnc(Nc3ccsc3C(=O)Nc3ccc(F)c(Cl)c3)c2cc1OC
